The target of one assay is T1, human GPR40 (Homo sapiens, UniProt O14842).
T1 construct: expressed in transfected cells
The experiment in a line: GPR40 calcium flux assay, human GPR40. It counts as cell-based. The conditions noted are these: HEK293 cells stably expressing GPR40; table does not say human or rat. Summed up: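 Cells preincubated 1 h at 37° C. in HBSS, 20 mM HEPES, 0.1% BSA, then Fluo 8 calcium dye 30 min at 37° C. and 15 min at room temperature.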
For orientation: Calcium assays in cells follow changes in intracellular calcium, usually with a dye or a luminescent sensor.

The next assay has as its target T2, Human GPR120 short form (Homo sapiens, UniProt Q5NUL3).
T2 construct: expressed in transfected cells
T2 sequence (Q5NUL3 1-361): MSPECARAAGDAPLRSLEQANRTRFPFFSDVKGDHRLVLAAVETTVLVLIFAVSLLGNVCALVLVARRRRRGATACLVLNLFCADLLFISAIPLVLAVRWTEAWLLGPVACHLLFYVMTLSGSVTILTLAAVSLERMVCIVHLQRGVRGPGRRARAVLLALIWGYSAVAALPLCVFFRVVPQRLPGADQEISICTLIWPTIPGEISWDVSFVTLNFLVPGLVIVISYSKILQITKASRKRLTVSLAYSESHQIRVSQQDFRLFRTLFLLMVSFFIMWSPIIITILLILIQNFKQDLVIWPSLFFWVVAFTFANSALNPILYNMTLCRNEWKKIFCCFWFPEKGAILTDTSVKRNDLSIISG
In words: Human GPR120 calcium flux assay, Procedure Calcium B (4200 cells/well). It counts as cell-based. Summed up:
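Agonist EC50 came from a four-parameter fit of RFU (Fmax−Fmin) read over 300 s on FLIPR. Cells were HEK293 stably transfected with human GPR120 (NM_001195755.1) at 4200 per well, serum-starved 1 h and loaded with Fluo-4 NW dye with probenecid before ligand addition.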

Drawing on patent publication US11230526B1, “Cylcoalkenyl derivatives useful as agonists of the GPR120 and/or GPR40 receptors” (Janssen Pharmaceutica NV, priority 2018, dated 2022), this text covers EC50 for 32 compounds.

T1 sequence (O14842 whole entry): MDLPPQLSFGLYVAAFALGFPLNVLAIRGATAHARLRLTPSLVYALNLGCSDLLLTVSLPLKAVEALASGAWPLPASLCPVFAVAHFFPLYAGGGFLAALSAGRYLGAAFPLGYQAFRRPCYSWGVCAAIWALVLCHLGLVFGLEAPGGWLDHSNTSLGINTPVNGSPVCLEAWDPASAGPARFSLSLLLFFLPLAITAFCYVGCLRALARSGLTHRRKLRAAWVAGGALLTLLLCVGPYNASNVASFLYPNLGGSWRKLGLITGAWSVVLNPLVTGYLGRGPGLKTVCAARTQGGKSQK

`Cc1ccc(C2=C(COc3ccc(CCC(=O)O)c(C(F)(F)F)c3)CC(F)(F)C2)cc1` [Compound 249, 3-[4-[[4,4-difluoro-2-(p-tolyl)cyclopenten-1-yl]methoxy]-2-(trifluoromethyl)phenyl]Propanoic Acid]: the EC50 is 463 nM at human GPR40 and 173 nM on Human GPR120 short form.
With `O=C(O)CCc1ccc(OCC2=C(c3ccccc3)CCC2)cc1C(F)(F)F` [Compound 258, 3-[4-[(2-phenylcyclopenten-1-yl)methoxy]-2-(trifluoromethyl)phenyl]Propanoic Acid], the results for the 50% effective concentration (EC50) at human GPR40 and at Human GPR120 short form were 481 nM and 614 nM, respectively.
Regarding `O=C(O)CCc1ccc(OCC2=C(C3CCC4CC43)CCC2)cc1` (stereo not shown) [Compound 455, 3-[4-[[2-(4-bicyclo[3.1.0]hexanyl)cyclopenten-1-yl]methoxy]phenyl]Propanoic Acid], the results for the concentration for a half-maximal effect (EC50) at human GPR40 and on Human GPR120 short form were 403 nM and 340 nM, respectively.
For `Cc1c(CCC(=O)O)ccc(OCC2=C(c3ccc(Cl)cc3)CCC(C)(C)C2)c1C` [Compound 541, 3-[4-[[2-(4-chlorophenyl)-5,5-dimethyl-cyclohexen-1-yl]methoxy]-2,3-dimethyl-phenyl]Propanoic Acid] the same measures were 4760 nM and 1500 nM.
For `Cc1cc(CCC(=O)O)ccc1OCC1=C(C2=CCOCC2)CCC1` [Compound 238, 3-[4-[[2-(3,6-dihydro-2H-pyran-4-yl)cyclopenten-1-yl]methoxy]-3-methyl-phenyl]Propanoic Acid], the EC50 is over 5000 nM on human GPR40 and 435 nM at Human GPR120 short form.
For `Cc1cc(OCC2=C(c3ccc(F)cc3)CC(F)(F)C2)c(F)cc1CCC(=O)O` [Compound 402, 3-[4-[[4,4-difluoro-2-(4-fluorophenyl)cyclopenten-1-yl]methoxy]-5-fluoro-2-methyl-phenyl]Propanoic Acid] the same measures were 1090 nM and 278 nM.
For `O=C(O)CCc1ccc(OCC2=C(CC3CCCCC3)CCC2)cc1C(F)(F)F` [Compound 369, 3-[4-[[2-(cyclohexylmethyl)cyclopenten-1-yl]methoxy]-2-(trifluoromethyl)phenyl]Propanoic Acid] the same measures were 125 nM and over 5000 nM.
As to `O=C(O)CCc1ccc(OCC2=C(c3ccc(Cl)cc3)CC(F)(F)C2)cc1Cl` [Compound 251, 3-[2-chloro-4-[[2-(4-chlorophenyl)-4,4-difluoro-cyclopenten-1-yl]methoxy]phenyl]Propanoic Acid], the concentration for a half-maximal effect (EC50) at human GPR40 is 579 nM; on Human GPR120 short form it was 195 nM.
For `O=C(O)CCc1cc(F)c(OCC2=C(C3CCC(F)(F)CC3)CCC2)c(F)c1` [Compound 419, 3-[4-[[2-(4,4-difluorocyclohexyl)cyclopenten-1-yl]methoxy]-3,5-difluoro-phenyl]Propanoic Acid] the same measures were over 10000 nM and 3170 nM.
Take `CCCC1=C(COc2ccc(CCC(=O)O)c(Cl)c2)CCCC1` [Compound 591, 3-[2-chloro-4-[(2-propylcyclohexen-1-yl)methoxy]phenyl]Propanoic Acid]: the EC50 at human GPR40 is 431 nM; on Human GPR120 short form it was 2390 nM.
With `Cc1cc(CCC(=O)O)cc(Cl)c1OCC1=C(c2ccc(F)cc2)CC(F)(F)C1` [Compound 229, 3-[3-chloro-4-[[4,4-difluoro-2-(4-fluorophenyl)cyclopenten-1-yl]methoxy]-5-methyl-phenyl]Propanoic Acid], the half-maximal effective concentration (EC50) is over 5000 nM at human GPR40 and 1050 nM at Human GPR120 short form.
Take `Cc1ccc(C2=C(COc3ccc(CCC(=O)O)cc3)CCC2)c(O)c1` [Compound 213]: the EC50 was over 5000 nM at human GPR40 and 776 nM at Human GPR120 short form.
As to `O=C(O)CCc1ccc(OCC2=C(Cc3ccccc3)CCC2)cc1C(F)(F)F` [Compound 319, 3-[4-[(2-benzylcyclopenten-1-yl)methoxy]-2-(trifluoromethyl)phenyl]Propanoic Acid], the 50% effective concentration (EC50) on human GPR40 is 55 nM; on Human GPR120 short form it was 623 nM.
For `Cc1cc(Cl)ccc1C1=C(COc2ccc(CCC(=O)O)c(C(F)(F)F)c2)CCC1` [Compound 243, 3-[4-[[2-(4-chloro-2-methyl-phenyl)cyclopenten-1-yl]methoxy]-2-(trifluoromethyl)phenyl]Propanoic Acid], the results for the concentration giving a half-maximal response (EC50) on human GPR40 and on Human GPR120 short form were 90 nM and over 5000 nM, respectively.
With `O=C(O)CCc1ccc(OCC2=C(c3ccc(Cl)cc3F)CCC2)cc1Cl` [Compound 275], the half-maximal effective concentration (EC50) on human GPR40 was determined as 286 nM; on Human GPR120 short form it was 307 nM.
For `C#Cc1cc(OCC2=C(C3CCCC3)CCC2)ccc1CCC(=O)O` [Compound 454, 3-[4-[(2-cyclopentylcyclopenten-1-yl)methoxy]-2-ethynyl-phenyl]Propanoic Acid] the same measures were 513 nM and 2250 nM.
Take `O=C(O)CCc1ccc(OCC2=C(C3=CCCCC3)CCC2)cc1` [Compound 230, 3-[4-[[2-(cyclohexen-1-yl)cyclopenten-1-yl]methoxy]phenyl]Propanoic Acid]: the concentration for a half-maximal effect (EC50) on human GPR40 is over 5000 nM; on Human GPR120 short form, 1870 nM.
As to `O=C(O)CCc1ccc(OCC2=C(C3CCOCC3)CCC2)cc1Cl` [Compound 418, 3-[2-chloro-4-[(2-tetrahydropyran-4-ylcyclopenten-1-yl)methoxy]phenyl]Propanoic Acid], the EC50 at human GPR40 is 171 nM; at Human GPR120 short form, over 5000 nM.
Turning to `O=C(O)CCc1ccc(OCC2=C(c3ccccc3Cl)CCC2)cc1C(F)(F)F` [Compound 313, 3-[4-[[2-(2-chlorophenyl)cyclopenten-1-yl]methoxy]-2-(trifluoromethyl)phenyl]Propanoic Acid], the EC50 at human GPR40 amounted to 191 nM; on Human GPR120 short form it was 855 nM.
With `CCCC#CC1=C(COc2ccc(CCC(=O)O)cc2)CCC1` [Compound 233], the EC50 at human GPR40 turned out to be 2930 nM; on Human GPR120 short form, 752 nM.
`CCCC1=C(COc2ccc(CCC(=O)O)cc2)CCCC1` [Compound 589, 3-[4-[(2-propylcyclohexen-1-yl)methoxy]phenyl]Propanoic Acid]: the values for the concentration giving a half-maximal response (EC50) on human GPR40 and on Human GPR120 short form were 2390 nM and 3150 nM, respectively.
As to `O=C(O)CCc1ccc(OCC2=C(c3ccc(Cl)c(F)c3)CCC2)cc1C(F)(F)F` [Compound 284, 3-[4-[[2-(4-chloro-3-fluoro-phenyl)cyclopenten-1-yl]methoxy]-2-(trifluoromethyl)phenyl]Propanoic Acid], the EC50 at human GPR40 was determined as 101 nM; on Human GPR120 short form, 442 nM.
With `O=C(O)CCc1ccc(OCC2=C(C3CCC3)CCCC2)cc1Cl` [Compound 600, 3-[2-chloro-4-[(2-cyclobutylcyclohexen-1-yl)methoxy]phenyl]Propanoic Acid], the EC50 on human GPR40 is 24 nM; at Human GPR120 short form, 1200 nM.
In the case of `O=C(O)CCc1ccc(OCC2=C(c3cccc(F)c3)CCC2)cc1C(F)(F)F` [Compound 263, 3-[4-[[2-(3-fluorophenyl)cyclopenten-1-yl]methoxy]-2-(trifluoromethyl)phenyl]Propanoic Acid], the figures for the EC50 on human GPR40 and on Human GPR120 short form were 134 nM and 262 nM, respectively.
Regarding `O=C(O)CCc1ccc(OCC2=C(c3ccc(F)c(F)c3)CCC2)cc1` [Compound 103], the EC50 at human GPR40 and at Human GPR120 short form was over 5000 nM each time.
With `O=C(O)CCc1ccc(OCC2=C(c3ccc(F)cc3)CCC2)cc1C(F)(F)F` [Compound 240, 3-[4-[[2-(4-fluorophenyl)cyclopenten-1-yl]methoxy]-2-(trifluoromethyl)phenyl]Propanoic Acid], the EC50 at human GPR40 is 187 nM; at Human GPR120 short form, 388 nM.
As to `CC(C)CCC1=C(COc2ccc(CCC(=O)O)c(C(F)(F)F)c2)CCC1` [Compound 374, 3-[4-[(2-isopentylcyclopenten-1-yl)methoxy]-2-(trifluoromethyl)phenyl]Propanoic Acid], the concentration giving a half-maximal response (EC50) on human GPR40 is 199 nM; on Human GPR120 short form, 1430 nM.
As to `O=C(O)CCc1ccc(OCC2=C(C3CCCCC3)CCCC2)cc1Cl` [Compound 602, 3-[2-chloro-4-[(2-cyclohexylcyclohexen-1-yl)methoxy]phenyl]Propanoic Acid], the EC50 was 1060 nM at human GPR40 and 2410 nM at Human GPR120 short form.
In the case of `O=C(O)CCc1ccc(OCC2=C(C3CCCC3)CCC2)cc1F` [Compound 426, 3-[4-[(2-cyclopentylcyclopenten-1-yl)methoxy]-2-fluoro-phenyl]Propanoic Acid], the EC50 on human GPR40 was 82 nM; at Human GPR120 short form, 200 nM.
For `CC1CCC(c2ccc(Cl)cc2)=C1COc1ccc(CCC(=O)O)cc1` (stereo not shown) [Compound 332, 3-[4-[[2-(4-chlorophenyl)-5-methyl-cyclopenten-1-yl]methoxy]phenyl]Propanoic Acid] the same measures were 1300 nM and 191 nM.
As to `O=C(O)CCc1ccc(OCC2=C(C3CCCC3)CC(F)(F)C2)cc1F` [Compound 457, 3-[4-[(2-cyclopentyl-4,4-difluoro-cyclopenten-1-yl)methoxy]-2-fluoro-phenyl]Propanoic Acid], the EC50 at human GPR40 was found to be 46 nM; at Human GPR120 short form it was 126 nM.
For the compound `O=C(O)CCc1ccc(OCC2=C(C3CCC(F)(F)CC3)CCC2)cc1C(F)(F)F` [Compound 416, 3-[4-[[2-(4,4-difluorocyclohexyl)cyclopenten-1-yl]methoxy]-2-(trifluoromethyl)phenyl]Propanoic Acid], the values for the 50% effective concentration (EC50) at human GPR40 and at Human GPR120 short form were 94 nM and over 5000 nM, respectively.

Broadly, the EC50 is the concentration at which the effect is half-maximal.
